Measured values: patent publication US12331044B2, “Inhibitors of histone deacetylase useful for the treatment or prevention of HIV infection” (Merck Sharp & Dohme LLC, priority 2018, dated 2025)
Where two headings read alike, the source gives them in different places.

What was measured:
human HDAC1 [1] = target: T1, human HDAC1 (Homo sapiens (Human), UniProt Q13547); assay: biochemical
HDAC6 [2] = target: T2, HDAC6 (Homo sapiens (Human), UniProt Q9UBN7); assay: biochemical
human HDAC8 = human HDAC8 (Homo sapiens (Human), UniProt Q9BY41); assay: HDAC8 inhibition assay (modified FLUOR DE LYS, 384-well); assay type: biochemical
human HDAC2 = human HDAC2 (Homo sapiens (Human), UniProt Q92769); assay: HDAC2 inhibition assay (modified FLUOR DE LYS, 384-well); assay type: biochemical
KARN cells (Jurkat 2C4) = assay: cells; settings: Homo sapiens
[3] = target: T3, human HDAC3/SMRT heterodimer (Homo sapiens (Human), UniProt O15379); assay: biochemical
HDAC6 [4] = target: T2, HDAC6
[5] = target: T3, human HDAC3/SMRT heterodimer
human HDAC1 [6] = target: T1, human HDAC1
[7] = […] nM enzyme, 200 μM substrate BML-KI178, 3 h pre-incubation, read-out: HDAC8 IC50
[8] = […] nM enzyme, 40 μM substrate BML-KI104, 3 h pre-incubation, read-out: HDAC2 IC50
[9] = read-out: Karn EC50 nM 0.1% NHS, 0.1% normal human serum, luciferase induction, 2 μM SAHA = 100%
[10] = read-out: Karn EC50 nM 5% NHS, 5% normal human serum, luciferase induction, 2 μM SAHA = 100%
[11] = read-out: Karn EC50 nM 0.1% NHS
[12] = […] enzyme, 200 μM substrate BML-KI178, 3 h pre-incubation, read-out: HDAC8 IC50
[13] = […] enzyme, 40 μM substrate BML-KI104, 3 h pre-incubation, read-out: HDAC2 IC50

T3 sequence (O15379 whole entry): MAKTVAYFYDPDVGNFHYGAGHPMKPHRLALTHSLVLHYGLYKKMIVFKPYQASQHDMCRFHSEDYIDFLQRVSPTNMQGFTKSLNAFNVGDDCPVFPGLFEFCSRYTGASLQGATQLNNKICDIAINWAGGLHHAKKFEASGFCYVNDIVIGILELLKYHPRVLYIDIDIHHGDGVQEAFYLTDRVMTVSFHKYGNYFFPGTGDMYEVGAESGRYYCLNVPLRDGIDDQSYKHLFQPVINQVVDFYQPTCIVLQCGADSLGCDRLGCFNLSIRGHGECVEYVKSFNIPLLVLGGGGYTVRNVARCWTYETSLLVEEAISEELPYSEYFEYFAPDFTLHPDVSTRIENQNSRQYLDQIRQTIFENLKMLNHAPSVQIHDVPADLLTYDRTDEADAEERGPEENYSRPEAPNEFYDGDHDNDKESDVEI
T3 sequence (Q9Y618 1-899 partner): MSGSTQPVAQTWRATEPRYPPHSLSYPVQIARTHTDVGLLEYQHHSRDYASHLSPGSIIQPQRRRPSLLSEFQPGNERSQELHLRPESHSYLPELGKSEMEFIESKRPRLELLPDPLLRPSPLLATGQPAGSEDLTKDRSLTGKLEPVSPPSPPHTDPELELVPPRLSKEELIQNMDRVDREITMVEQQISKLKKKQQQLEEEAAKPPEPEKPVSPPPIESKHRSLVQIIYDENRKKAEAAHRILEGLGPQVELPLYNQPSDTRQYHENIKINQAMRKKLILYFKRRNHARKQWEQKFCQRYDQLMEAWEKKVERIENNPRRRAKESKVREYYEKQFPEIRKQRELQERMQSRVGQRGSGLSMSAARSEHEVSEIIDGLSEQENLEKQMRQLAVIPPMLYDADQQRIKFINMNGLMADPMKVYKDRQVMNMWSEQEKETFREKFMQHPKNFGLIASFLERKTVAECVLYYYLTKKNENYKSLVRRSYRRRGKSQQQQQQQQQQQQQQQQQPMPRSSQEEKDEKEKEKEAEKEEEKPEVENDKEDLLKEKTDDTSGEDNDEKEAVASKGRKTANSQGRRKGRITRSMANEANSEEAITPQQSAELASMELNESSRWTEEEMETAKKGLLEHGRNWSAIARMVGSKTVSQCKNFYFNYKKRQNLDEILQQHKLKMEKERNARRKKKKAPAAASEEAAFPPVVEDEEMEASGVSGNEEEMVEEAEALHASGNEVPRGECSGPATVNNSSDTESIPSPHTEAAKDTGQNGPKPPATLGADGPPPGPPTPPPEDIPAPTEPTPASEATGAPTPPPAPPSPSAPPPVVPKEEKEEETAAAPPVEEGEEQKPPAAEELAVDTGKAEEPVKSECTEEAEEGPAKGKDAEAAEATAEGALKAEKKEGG
T2 sequence (Q9UBN7 whole entry): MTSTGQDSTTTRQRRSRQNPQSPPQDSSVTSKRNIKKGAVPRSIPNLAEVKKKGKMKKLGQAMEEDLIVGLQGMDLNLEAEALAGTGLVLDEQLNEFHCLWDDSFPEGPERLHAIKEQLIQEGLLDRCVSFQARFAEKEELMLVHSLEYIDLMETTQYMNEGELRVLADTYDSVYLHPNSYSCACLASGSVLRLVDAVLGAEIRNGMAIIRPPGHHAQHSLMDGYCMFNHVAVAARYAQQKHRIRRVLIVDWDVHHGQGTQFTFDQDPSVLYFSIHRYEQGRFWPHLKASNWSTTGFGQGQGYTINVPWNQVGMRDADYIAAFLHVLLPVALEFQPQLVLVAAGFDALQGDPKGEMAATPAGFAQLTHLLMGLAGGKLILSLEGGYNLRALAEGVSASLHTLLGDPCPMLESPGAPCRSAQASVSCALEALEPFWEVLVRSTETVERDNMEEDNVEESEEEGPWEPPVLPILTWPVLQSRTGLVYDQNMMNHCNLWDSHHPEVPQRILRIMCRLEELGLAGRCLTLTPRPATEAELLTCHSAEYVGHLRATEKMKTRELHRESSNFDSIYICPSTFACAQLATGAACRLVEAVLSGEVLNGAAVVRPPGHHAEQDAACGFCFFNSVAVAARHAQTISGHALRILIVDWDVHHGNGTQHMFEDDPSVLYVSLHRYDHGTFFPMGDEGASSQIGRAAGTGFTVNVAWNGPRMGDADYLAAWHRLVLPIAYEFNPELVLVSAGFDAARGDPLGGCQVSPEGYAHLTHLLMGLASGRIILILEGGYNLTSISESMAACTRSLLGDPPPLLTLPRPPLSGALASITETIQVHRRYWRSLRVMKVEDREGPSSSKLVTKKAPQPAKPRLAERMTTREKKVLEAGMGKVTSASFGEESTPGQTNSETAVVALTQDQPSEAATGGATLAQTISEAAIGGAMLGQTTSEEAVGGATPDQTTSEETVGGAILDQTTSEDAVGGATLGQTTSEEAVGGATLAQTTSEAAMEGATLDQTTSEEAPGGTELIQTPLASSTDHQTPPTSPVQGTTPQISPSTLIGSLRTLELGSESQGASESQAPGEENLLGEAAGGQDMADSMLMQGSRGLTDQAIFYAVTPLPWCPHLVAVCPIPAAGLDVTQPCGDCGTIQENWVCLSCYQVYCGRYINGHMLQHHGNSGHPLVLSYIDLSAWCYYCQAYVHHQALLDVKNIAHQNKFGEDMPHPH
Chain of human HDAC8 (Q9BY41 whole entry): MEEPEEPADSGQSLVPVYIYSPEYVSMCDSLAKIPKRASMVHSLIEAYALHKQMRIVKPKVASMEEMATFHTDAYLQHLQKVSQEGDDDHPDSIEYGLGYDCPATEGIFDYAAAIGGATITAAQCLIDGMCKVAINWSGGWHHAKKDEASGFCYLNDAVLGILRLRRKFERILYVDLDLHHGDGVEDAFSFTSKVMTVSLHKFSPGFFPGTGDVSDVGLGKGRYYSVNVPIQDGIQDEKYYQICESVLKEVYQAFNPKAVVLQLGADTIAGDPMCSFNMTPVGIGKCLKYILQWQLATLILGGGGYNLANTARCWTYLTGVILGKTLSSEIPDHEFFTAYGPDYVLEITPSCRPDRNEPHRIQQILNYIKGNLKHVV
T1 sequence (Q13547 whole entry): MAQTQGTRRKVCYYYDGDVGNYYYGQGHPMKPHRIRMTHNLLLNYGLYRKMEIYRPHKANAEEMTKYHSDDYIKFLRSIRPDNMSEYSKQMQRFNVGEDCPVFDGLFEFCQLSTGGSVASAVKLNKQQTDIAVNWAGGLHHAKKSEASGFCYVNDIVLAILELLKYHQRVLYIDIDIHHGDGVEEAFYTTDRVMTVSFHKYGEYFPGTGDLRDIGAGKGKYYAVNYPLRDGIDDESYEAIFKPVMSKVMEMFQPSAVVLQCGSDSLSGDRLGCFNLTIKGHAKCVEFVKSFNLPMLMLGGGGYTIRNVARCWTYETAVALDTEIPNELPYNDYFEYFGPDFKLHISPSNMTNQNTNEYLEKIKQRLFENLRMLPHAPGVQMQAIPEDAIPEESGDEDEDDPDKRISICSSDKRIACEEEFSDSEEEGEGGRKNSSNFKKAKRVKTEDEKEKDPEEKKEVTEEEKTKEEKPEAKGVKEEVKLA
Chain of human HDAC2 (Q92769 whole entry): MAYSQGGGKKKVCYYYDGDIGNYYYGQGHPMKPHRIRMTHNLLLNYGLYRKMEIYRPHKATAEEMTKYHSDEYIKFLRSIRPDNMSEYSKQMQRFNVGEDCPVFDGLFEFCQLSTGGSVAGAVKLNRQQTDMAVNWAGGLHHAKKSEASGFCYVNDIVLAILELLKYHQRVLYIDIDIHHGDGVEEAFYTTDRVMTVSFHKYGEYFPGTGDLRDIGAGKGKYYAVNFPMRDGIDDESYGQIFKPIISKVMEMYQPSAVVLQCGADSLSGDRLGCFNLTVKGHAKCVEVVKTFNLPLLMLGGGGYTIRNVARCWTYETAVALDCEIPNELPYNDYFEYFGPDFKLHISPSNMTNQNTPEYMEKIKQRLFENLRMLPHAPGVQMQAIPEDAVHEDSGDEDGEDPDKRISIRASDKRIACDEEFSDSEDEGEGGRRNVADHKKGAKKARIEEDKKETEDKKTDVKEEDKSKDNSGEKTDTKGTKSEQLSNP

Row | SMILES | IC50 (human HDAC1 [1]) | IC50 (HDAC6 [2]) | IC50 (human HDAC8; [7]) | IC50 (human HDAC2; [8]) | EC50 (KARN cells (Jurkat 2C4); [9]) | EC50 (KARN cells (Jurkat 2C4); [10]) | IC50 [3] | EC50 (KARN cells (Jurkat 2C4); [11]) | EC50 (KARN cells (Jurkat 2C4); read-out: Karn EC50 nM 5% NHS) | IC50 (human HDAC8) | IC50 (human HDAC2) | IC50 (HDAC6 [4]) | IC50 [5] | IC50 (human HDAC8; [12]) | IC50 (human HDAC2; [13]) | IC50 (human HDAC1 [6])
1 | COc1cc2nc(C)ccc2cc1-c1cnc([C@H](CCCCCC(=O)c2ccon2)NC(=O)[C@H]2CC23CCN(C)CC3)[nH]1 [Example 110, (S)-N-((S)-7-(isoxazol-3-yl)-1-(5-(7-methoxy-2-methylquinolin-6-yl)-1H-imidazol-2-yl)-7-oxoheptyl)-6-methyl-6-azaspiro[2.5]octane-1-carboxamide] | 0.00018 µM | 2.5 µM | 2.7 nM | 0.87 nM | 11 nM | 11 nM | 0.00018 µM | – | – | – | – | – | – | – | – | –
2 | O=C1NC(CCCCCC(=O)c2ncco2)(c2nc(-c3ccc(F)cc3)c[nH]2)CO1 (stereo not drawn) [Example 66, 4-(4-(4-fluorophenyl)-1H-imidazol-2-yl)-4-(6-(oxazol-2-yl)-6-oxohexyl)oxazolidin-2-one] | 0.0044 µM | ≥ 45 µM | 4400 nM | 15 nM | 380 nM | 530 nM | 0.0031 µM | – | – | – | – | – | – | – | – | –
3 | COc1cc2nc(C)ccc2cc1-c1cnc([C@H](CCCCCC(=O)c2ncco2)NC(=O)C2CN(C)C2)[nH]1 [Example 99, (S)-N-(1-(5-(7-methoxy-2-methylquinolin-6-yl)-1H-imidazol-2-yl)-7-(oxazol-2-yl)-7-oxoheptyl)-1-methylazetidine-3-carboxamide] | 0.0003 µM | 1.3 µM | 56 nM | 2.6 nM | – | – | 0.00047 µM | 77 nM | 73 nM | – | – | – | – | – | – | –
4 | COc1cc2nc(C)ccc2cc1-c1cnc([C@@H](N)CCCCCC(=O)c2ncco2)o1 [Example 27, (S)-7-amino-7-(5-(7-methoxy-2-methylquinolin-6-yl)oxazol-2-yl)-1-(oxazol-2-yl)heptan-1-one] | 0.0019 µM | 1.11 µM | 1200 nM | 9.5 nM | 120 nM | 140 nM | – | – | – | – | – | – | – | – | – | –
5 | CC(=O)N[C@@H](CCCCCC(=O)c1ncco1)c1ncc(-c2ccc3nc(C)ccc3c2)[nH]1 [Example 87, (S)-N-(1-(5-(2-methylquinolin-6-yl)-1H-imidazol-2-yl)-7-(oxazol-2-yl)-7-oxoheptyl)acetamide] | 0.00069 µM | 8.6 µM | 130 nM | 5.7 nM | – | – | 0.0018 µM | 43 nM | 60 nM | – | – | – | – | – | – | –
6 | COc1cc2nc(C)ccc2cc1-c1cnc([C@@]2(CCCCCC(=O)c3ccon3)CCC(=O)N2)[nH]1 [Example 70, (R)-5-(6-(isoxazol-3-yl)-6-oxohexyl)-5-(5-(7-methoxy-2-methylquinolin-6-yl)-1H-imidazol-2-yl)pyrrolidin-2-one] | 0.00078 µM | > 0.9 µM | 260 nM | 3.5 nM | 31 nM | 110 nM | 0.0011 µM | – | – | – | – | – | – | – | – | –
7 | N[C@@H](CCCCCC(=O)c1cocn1)c1ncc(-c2ccccc2F)[nH]1 [Example 36, (S)-7-amino-7-(5-(2-fluorophenyl)-1H-imidazol-2-yl)-1-(oxazol-4-yl)heptan-1-one] | – | > 0.9 µM | > 900 nM | – | – | – | – | – | – | – | – | – | – | – | – | –
8 | Cc1ccc2cc(-c3c[nH]c([C@H](CCCCCC(=O)c4ncco4)NC4CCN(C)CC4)n3)ccc2n1 [Example 78, (S)-7-((1-methylpiperidin-4-yl)amino)-7-(5-(2-methylquinolin-6-yl)-1H-imidazol-2-yl)-1-(oxazol-2-yl)heptan-1-one] | 0.0028 µM | ≥ 45 µM | – | – | – | – | – | 660 nM | 620 nM | 6900 nM | 8.3 nM | – | – | – | – | –
9 | Cc1ccc2cc(-c3c[nH]c([C@@H](N)CCCCCC(=O)c4ncco4)n3)ccc2n1 [Example 9, (S)-7-amino-7-(4-(2-methylquinolin-6-yl)-1H-imidazol-2-yl)-1-(oxazol-2-yl)heptan-1-one] | 0.0024 µM | 2.3 µM | 2000 nM | 12 nM | 160 nM | 160 nM | – | – | – | – | – | – | – | – | – | –
10 | COc1cc2ncccc2cc1-c1c[nH]c([C@@H](N)CCCCCC(=O)c2ccon2)n1 [Example 34, (S)-7-amino-1-(isoxazol-3-yl)-7-(4-(7-methoxyquinolin-6-yl)-1H-imidazol-2-yl)heptan-1-one] | 0.0014 µM | 5.6 µM | 120 nM | 5.1 nM | 23 nM | 44 nM | – | – | – | – | – | – | – | – | – | –
11 | COc1cc2nc(C)ccc2cc1-c1cnc([C@H](CCCCCC(=O)c2ncco2)NCc2ccccc2)[nH]1 [Example 82, (S)-7-(benzylamino)-7-(5-(7-methoxy-2-methylquinolin-6-yl)-1H-imidazol-2-yl)-1-(oxazol-2-yl)heptan-1-one] | – | – | – | – | 180 nM | 320 nM | – | – | – | – | – | 1.5 µM | 0.0027 µM | 1800 nM | 7.8 nM | 0.0031 µM
12 | COc1cc2nc(C)ccc2cc1-c1cnc([C@H](CCCCCC(=O)c2cc(C)on2)NC(=O)C2CN(C)C2)[nH]1 [Example 57] | – | – | – | – | 5.5 nM | 13 nM | – | – | – | – | – | 45 µM | 0.00024 µM | 150 nM | 1 nM | 0.00023 µM
13 | CN[C@@H](CCCCCC(=O)c1ncco1)c1ncc(-c2ccc3nc(C)ccc3c2)[nH]1 [Example 75, (S)-7-(methylamino)-7-(5-(2-methylquinolin-6-yl)-1H-imidazol-2-yl)-1-(oxazol-2-yl)heptan-1-one] | – | – | – | – | 300 nM | 220 nM | – | – | – | – | – | 26 µM | 0.0039 µM | 3400 nM | 7 nM | 0.0024 µM
14 | COc1cc2c(ccc(=O)n2C)cc1-c1cnc([C@@H](N)CCCCCC(=O)c2ncco2)[nH]1 [Example 21] | – | – | – | – | 110 nM | 110 nM | – | – | – | – | – | > 4.5 µM | 0.0015 µM | 490 nM | 8.4 nM | 0.0019 µM
15 | COc1cc2nc(C)ccc2cc1-c1cnc([C@H](CCCCCC(=O)c2ncco2)NC(=O)C2COCCO2)[nH]1 (stereo partly drawn) [Example 173, N-[(1S)-1-[5-(7-methoxy-2-methylquinolin-6-yl)-1H-imidazol-2-yl]-7-(1,3-oxazol-2-yl)-7-oxoheptyl]-1,4-dioxane-2-carboxamide] | – | – | – | – | 42 nM | 74 nM | – | – | – | – | – | > 0.9 µM | 0.00043 µM | 83 nM | 3.2 nM | 0.0011 µM
16 | CCn1ccc2cc(-c3cnc([C@H](CCCCCC(=O)c4ncco4)NC(=O)CN(C)C)[nH]3)c(OC)cc2c1=O [Example 96, (S)-2-(dimethylamino)-N-(1-(5-(2-ethyl-7-methoxy-1-oxo-1,2-dihydroisoquinolin-6-yl)-1H-imidazol-2-yl)-7-(oxazol-2-yl)-7-oxoheptyl)acetamide] | – | – | – | – | 14 nM | 24 nM | – | – | – | – | – | 0.92 µM | 0.00094 µM | 57 nM | 3.8 nM | 0.00051 µM
17 | COc1cc2nc(C)ccc2cc1-c1cnc([C@H](CCCCCC(=O)c2ncco2)NC(=O)C2COC(c3ccccc3)CO2)[nH]1 (stereo partly drawn) [Example 172, N-[(1S)-1-[5-(7-methoxy-2-methylquinolin-6-yl)-1H-imidazol-2-yl]-7-(1,3-oxazol-2-yl)-7-oxoheptyl]-5-phenyl-1,4-dioxane-2-carboxamide] | – | – | – | – | 340 nM | 990 nM | – | – | – | – | – | > 0.9 µM | 0.0064 µM | 490 nM | 100 nM | 0.02 µM
18 | COc1nc2ccccc2cc1-c1cnc([C@H](CCCCCC(=O)c2ncco2)NC(=O)C2COCCO2)[nH]1 (stereo partly drawn) [Example 152, N-[(1S)-1-[5-(2-methoxyquinolin-3-yl)-1H-imidazol-2-yl]-7-(1,3-oxazol-2-yl)-7-oxoheptyl]-1,4-dioxane-2-carboxamide] | – | – | – | – | 49 nM | 350 nM | – | – | – | – | – | 12 µM | 0.0016 µM | 78 nM | 5.8 nM | 0.00068 µM
19 | CN1CCC2(CC1)C[C@@H]2C(=O)N[C@@H](CCCCCC(=O)c1ccon1)c1nc(-c2ccccc2F)c[nH]1 [Example 39] | – | – | – | – | 3 nM | 4 nM | – | – | – | – | – | 45 µM | 0.00013 µM | 2 nM | 0.57 nM | 0.0001 µM
20 | COc1cc2c(ccc(=O)n2C)cc1-c1cnc([C@H](CCCCCC(=O)c2ncco2)NC(=O)CN(C)C)[nH]1 [Example 92] | – | – | – | – | 32 nM | 64 nM | – | – | – | – | – | 4.5 µM | 0.0011 µM | 57 nM | 6.2 nM | 0.00092 µM
21 | CN1CCC2(CC1)C[C@@H]2C(=O)N[C@@H](CCCCCC(=O)c1ncco1)c1[nH]c(-c2ccc(F)cc2)nc1C#N [Example 187, (S)-N-((S)-1-(4-cyano-2-(4-fluorophenyl)-1H-imidazol-5-yl)-7-(oxazol-2-yl)-7-oxoheptyl)-6-methyl-6-azaspiro[2.5]octane-1-carboxamide] | – | – | – | – | 20 nM | 25 nM | – | – | – | – | – | 45 µM | 0.00016 µM | 170 nM | 0.83 nM | 0.00016 µM
